# Test results taken from publication PMC11855827, “High-Throughput Screening of Five Compound Libraries for Anthelmintic Activity and Toxicity Leads to the Discovery of Two Flavonoid Compounds” (International Journal of Molecular Sciences, 2025).
# Read-outs that look alike come from different tables or passages of the source.
# System: C. elegans
# Test: microbe, parasite or virus in culture
# Conditions: Caenorhabditis elegans
# [1] = 0 h, read-out: Percentage of motility inhibition 0 h, Table S2, C. elegans SS assay, 110 μM, 0 h, averages of 4 data points
# [2] = 24 h, read-out: Percentage of motility inhibition 24 h, Table S2, C. elegans SS assay, 110 μM, 24 h, averages of 4 data points
# [3] = 0 h, read-out: Percentage of motility inhibition 0 h
# [4] = 24 h, read-out: Percentage of motility inhibition 24 h
SMILES,inhibition at 110 µM [1] [%],inhibition at 110 µM [2] [%],also measured
C=C1C(=O)O[C@H]2[C@H]1CC/C(C)=C/CC[C@@]1(C)O[C@@H]21 [Parthenolide],6,26,
c1ccc2[nH]ccc2c1 [Indole],,,inhibition at 110 µM [3]: 13%; inhibition at 110 µM [4]: 9%
Nc1nc(N)c(O[C@@H]2O[C@H](CO)[C@@H](O)[C@H](O)[C@H]2O)c(=O)[nH]1 [Vicine],0,0,
O=C(O)/C=C/C(=O)O [Fumaric acid],8,5,
CNC(=O)Oc1ccccc1OC(C)C [Propoxur],16,9,
CC(C)c1ccc2c(c1)CC[C@H]1[C@](C)(C(=O)O)CCC[C@]21C [Dehydroabietic acid],4,17,
CC1=C2C(=O)[C@H]3[C@@H](CC=C4C[C@@H](O)CC[C@@]43C)[C@@H]2CC[C@]12O[C@@H]1C[C@H](C)CN[C@H]1[C@H]2C [Jervine],0,33,
CC(C)=CCc1c(O)ccc(C(=O)/C=C/c2ccc(O)cc2)c1O [Isobavachalcone],6,15,
Cc1ccc(C(C)C)c(O)c1 [Thymol],54,28,
CCCOc1ccc2nc(NC(=O)OC)[nH]c2c1 [Oxibendazole],17,28,
CC1(C)CC[C@]2(C(=O)O)[C@H](O)C[C@]3(C)C(=CC[C@@H]4[C@@]5(C)CC[C@H](O)[C@@](C)(C=O)[C@@H]5CC[C@]43C)[C@@H]2C1 [Quillaic acid],14,16,
NNC(=O)c1ccncc1 [Isoniazid],26,27,
CC(C)=CCC[C@@H](C)[C@@H]1CC[C@]2(C)C3=C(CC[C@@]12C)[C@@]1(C)CC[C@H](O)C(C)(C)[C@@H]1CC3 [Euphol],0,41,
CCCCCCCCC(=O)NCc1ccc(O)c(OC)c1 [Nonivamide],,0,
CC(C)=CCC[C@](C)(O[C@@H]1O[C@H](CO[C@@H]2O[C@H](CO)[C@@H](O)[C@H](O)[C@H]2O)[C@@H](O)[C@H](O)[C@H]1O)[C@H]1CC[C@]2(C)[C@@H]1[C@H](O)C[C@@H]1[C@@]3(C)CC[C@H](O[C@@H]4O[C@H](CO)[C@@H](O)[C@H](O)[C@H]4O[C@@H]4O[C@H](CO)[C@@H](O)[C@H](O)[C@H]4O)C(C)(C)[C@@H]3CC[C@]12C [Ginsenoside Rb1],4,0,
COc1cc(CNC(=O)CCCC/C=C/C(C)C)ccc1O [Capsaicin],,,inhibition at 110 µM [3]: 0%; inhibition at 110 µM [4]: 0%
CN1C(=O)CC[C@H]1c1cccnc1 [Cotinine],45,16,
COc1cc(C=O)cc(OC)c1O [Syringaldehyde],,,inhibition at 110 µM [3]: 4%; inhibition at 110 µM [4]: 3%
Oc1c(I)cc(I)c2cccnc12 [Diiodohydroxyquinoline],38,40,
N=C(N)NCCC[C@H](N)C(=O)O [L-Arginine],,,inhibition at 110 µM [3]: 0%; inhibition at 110 µM [4]: 0%
O=C(O)CCCC[C@@H]1SC[C@@H]2NC(=O)N[C@@H]21 [Biotin],,,inhibition at 110 µM [3]: 14%; inhibition at 110 µM [4]: 12%
C[n+]1cccc(C(=O)[O-])c1 [Trigonelline],0,0,
Cc1coc2c1C(=O)C(=O)c1c-2ccc2c(C)cccc12 [Tanshinone I],0,3,
CC(C)=CCC[C@](C)(O[C@@H]1O[C@H](CO[C@@H]2OC[C@@H](O)[C@H](O)[C@H]2O)[C@@H](O)[C@H](O)[C@H]1O)[C@H]1CC[C@]2(C)[C@@H]1[C@H](O)C[C@@H]1[C@@]3(C)CC[C@H](O[C@@H]4O[C@H](CO)[C@@H](O)[C@H](O)[C@H]4O[C@@H]4O[C@H](CO)[C@@H](O)[C@H](O)[C@H]4O)C(C)(C)[C@@H]3CC[C@]12C [Ginsenoside Rb3],6,1,
O=C(O)CNCC(=O)O [Iminodiacetic acid],15,0,
CC(C)=CCC[C@](C)(O)[C@H]1CC[C@]2(C)[C@@H]1[C@H](O)C[C@@H]1[C@@]3(C)CC[C@H](O)C(C)(C)[C@@H]3[C@@H](O[C@@H]3O[C@H](CO)[C@@H](O)[C@H](O)[C@H]3O[C@@H]3O[C@H](CO)[C@@H](O)[C@H](O)[C@H]3O)C[C@]12C [Ginsenoside Rf],0,0,
C[C@@H]1O[C@@H](Oc2c(-c3ccc(O)c(O)c3)oc3cc(O)cc(O)c3c2=O)[C@H](O)[C@H](O)[C@H]1O [Quercitrin],4,0,

SMILES,inhibition at 110 µM [1] [%],inhibition at 110 µM [2] [%],also measured
"CC(C)NCC(O)COc1cccc2ccccc12 (stereo not shown) [Propranolol, reference compound]",0,0,"inhibition at 110 µM (0 h, read-out: Inhibition (%) 110 μM (0 h), C. elegans L4 motility, 110 μM, 0 h, mean ± SD of four experiments): 84%; inhibition at 110 µM (24 h, read-out: Inhibition (%) 110 μM (24 h), C. elegans L4 motility, 110 μM, 24 h, mean ± SD of four experiments): 35%"
CCC(=O)O[C@@H]1CC(=O)O[C@H](C)C/C=C/C=C/[C@H](O)[C@H](C)C[C@H](CC=O)[C@H](O[C@@H]2O[C@H](C)[C@@H](O[C@H]3C[C@@](C)(O)[C@@H](OC(=O)CC)[C@H](C)O3)[C@H](N(C)C)[C@H]2O)[C@H]1OC [Midecamycin],16,14,
Nc1ccn(C[C@@H](CO)OCP(=O)(O)O)c(=O)n1 [Cidofovir],15,3,
O=c1c(O)c(-c2ccc(O)c(O)c2)oc2cc(O)c(O)c(O)c12 [Quercetagetin],,,inhibition at 110 µM [3]: 15%; inhibition at 110 µM [4]: 10%
CC(=O)NC[C@H]1CN(c2ccc(N3CCSCC3)c(F)c2)C(=O)O1 [Sutezolid],16,4,
Cn1c(N2CCCCS2(=O)=O)nc(C(=O)NCc2ccc(F)cc2)c(O)c1=O [BMS‐707035],0,1,
CC[C@]12CCCN3CCc4c(n(c5ccccc45)[C@@](O)(C(=O)OC)C1)[C@@H]32 [Vincamine],0,,
O=c1cc(-c2ccccc2)oc2ccc(O)cc12 [6‐Hydroxyflavone],14,2,
C=C[C@H]1C[N@@]2CC[C@H]1C[C@@H]2[C@@H](O)c1ccnc2ccccc12 [Cinchonine],6,0,
N#C/C(=C1/SC[C@@H](c2ccc(Cl)cc2Cl)S1)n1ccnc1 [Luliconazole],3,7,
C/C=C(\C)C(=O)N[C@@H](c1ccccc1)[C@@H](O)C(=O)O[C@H]1C[C@@]2(O)[C@@H](OC(=O)c3ccccc3)[C@@H]3[C@]4(OC(C)=O)CO[C@@H]4C[C@H](O)[C@@]3(C)C(=O)[C@H](OC(C)=O)C(=C1C)C2(C)C [Cephalomannine],31,34,
CC(=O)OCC1=C[C@H](O)[C@@H]2C(C(=O)O)=CO[C@@H](O[C@@H]3O[C@H](CO)[C@@H](O)[C@H](O)[C@H]3O)[C@H]12 [Asperulosidic Acid],2,0,
C=C[C@]12CN(C)[C@@H]3[C@H]4CO[C@H](C[C@H]41)[C@]1(C(=O)Nc4ccccc41)[C@@H]32 [Gelsemi ne],0,0,
CC(C)=C/C=C1\O[C@@H]2CC(C)=CC(=O)[C@@H]2[C@]1(C)O [Bisabolangelone],18,13,
Cc1cn([C@H]2O[C@@H](CO)[C@H](O)[C@H]2F)c(=O)[nH]c1=O [Clevudine],2,0,
CC1(C)C=Cc2c(ccc3c2OC[C@@H](c2ccc(O)cc2O)C3)O1 [Glabridin],26,6,
Oc1cc(O)c2c(c1)O[C@H](c1ccc(O)c(O)c1)[C@H](O)C2 [(‐)‐Epicatechin],1,23,
COc1cc2c(c(OC)c1OC)-c1ccc(OC)c(=O)cc1[C@@H](NC(C)=O)CC2 [Colchicine],,,inhibition at 110 µM [3]: 0%; inhibition at 110 µM [4]: 6%
COc1ccc(CCC(=O)c2c(O)cc(O[C@@H]3O[C@H](CO)[C@@H](O)[C@H](O)[C@H]3O[C@@H]3O[C@@H](C)[C@H](O)[C@@H](O)[C@H]3O)cc2O)cc1O [Neohesperidin dihydrochalcone],10,2,
C[C@@]12C[C@@]3(O)O[C@@H](O1)[C@]1(COC(=O)c4ccccc4)[C@H]3C[C@@]12O[C@@H]1O[C@H](CO)[C@@H](O)[C@H](O)[C@H]1O [Paeoniflorin],4,10,
N[C@H]1C(O)O[C@H](CO)[C@@H](O)[C@@H]1O (stereo partly shown) [Glucosamine],8,4,
C/C(=C\C(=O)CC(C)C(=O)O)[C@H]1CC(=O)[C@@]2(C)C3=C(C(=O)C[C@]12C)[C@@]1(C)CC[C@H](O)C(C)(C)[C@@H]1C[C@@H]3O (stereo partly shown) [Ganoderenic acid B],0,42,
C=C1C/C(=C/C)C(=O)O[C@@H]2CCN3CC=C(COC(=O)[C@]1(C)O)[C@H]23 [Seneciphylline],0,1,
CC(C)(C)C#Cc1cc(N(C(=O)[C@H]2CC[C@H](C)CC2)[C@H]2CC[C@H](O)CC2)c(C(=O)O)s1 [VX‐222],48,57,
N#Cc1ccc(C(c2ccc(C#N)cc2)n2cncn2)cc1 [Letrozole],0,0,
COC(=O)Nc1nc2ccc(Sc3ccccc3)cc2[nH]1 [Fenbendazole],8,14,
